Consider 2 compounds from ChEMBL document CHEMBL1141460, “Sodium channel blockers” (J Med Chem, 2007).

Test [1] deals with Sodium channel protein type 10 subunit alpha (Homo sapiens, UniProt Q9Y5Y9). Kind of test: Binding affinity to Nav1.8 sodium channel.
Test [2] addresses Sodium channel protein type 9 subunit alpha (Homo sapiens, UniProt Q15858). Kind of test: Binding affinity to Nav1.7 sodium channel.
For test [3], the system named is Rattus norvegicus. Put plainly: Analgesic activity in ip dosed rat by CCI model of neuropathic pain. The format is functional.
Test [4] concerns the target Sodium channel protein type 5 subunit alpha (Homo sapiens, UniProt Q14524). Put plainly: Inhibition of inactivated human Nav1.5 sodium channel.
For test [5], the target named is Sodium channel protein type 2 subunit alpha (Homo sapiens, UniProt Q99250). Put plainly: Inhibition of inactivated human Nav1.2 sodium channel.
Sequence of Sodium channel protein type 2 subunit alpha (Q99250 whole entry): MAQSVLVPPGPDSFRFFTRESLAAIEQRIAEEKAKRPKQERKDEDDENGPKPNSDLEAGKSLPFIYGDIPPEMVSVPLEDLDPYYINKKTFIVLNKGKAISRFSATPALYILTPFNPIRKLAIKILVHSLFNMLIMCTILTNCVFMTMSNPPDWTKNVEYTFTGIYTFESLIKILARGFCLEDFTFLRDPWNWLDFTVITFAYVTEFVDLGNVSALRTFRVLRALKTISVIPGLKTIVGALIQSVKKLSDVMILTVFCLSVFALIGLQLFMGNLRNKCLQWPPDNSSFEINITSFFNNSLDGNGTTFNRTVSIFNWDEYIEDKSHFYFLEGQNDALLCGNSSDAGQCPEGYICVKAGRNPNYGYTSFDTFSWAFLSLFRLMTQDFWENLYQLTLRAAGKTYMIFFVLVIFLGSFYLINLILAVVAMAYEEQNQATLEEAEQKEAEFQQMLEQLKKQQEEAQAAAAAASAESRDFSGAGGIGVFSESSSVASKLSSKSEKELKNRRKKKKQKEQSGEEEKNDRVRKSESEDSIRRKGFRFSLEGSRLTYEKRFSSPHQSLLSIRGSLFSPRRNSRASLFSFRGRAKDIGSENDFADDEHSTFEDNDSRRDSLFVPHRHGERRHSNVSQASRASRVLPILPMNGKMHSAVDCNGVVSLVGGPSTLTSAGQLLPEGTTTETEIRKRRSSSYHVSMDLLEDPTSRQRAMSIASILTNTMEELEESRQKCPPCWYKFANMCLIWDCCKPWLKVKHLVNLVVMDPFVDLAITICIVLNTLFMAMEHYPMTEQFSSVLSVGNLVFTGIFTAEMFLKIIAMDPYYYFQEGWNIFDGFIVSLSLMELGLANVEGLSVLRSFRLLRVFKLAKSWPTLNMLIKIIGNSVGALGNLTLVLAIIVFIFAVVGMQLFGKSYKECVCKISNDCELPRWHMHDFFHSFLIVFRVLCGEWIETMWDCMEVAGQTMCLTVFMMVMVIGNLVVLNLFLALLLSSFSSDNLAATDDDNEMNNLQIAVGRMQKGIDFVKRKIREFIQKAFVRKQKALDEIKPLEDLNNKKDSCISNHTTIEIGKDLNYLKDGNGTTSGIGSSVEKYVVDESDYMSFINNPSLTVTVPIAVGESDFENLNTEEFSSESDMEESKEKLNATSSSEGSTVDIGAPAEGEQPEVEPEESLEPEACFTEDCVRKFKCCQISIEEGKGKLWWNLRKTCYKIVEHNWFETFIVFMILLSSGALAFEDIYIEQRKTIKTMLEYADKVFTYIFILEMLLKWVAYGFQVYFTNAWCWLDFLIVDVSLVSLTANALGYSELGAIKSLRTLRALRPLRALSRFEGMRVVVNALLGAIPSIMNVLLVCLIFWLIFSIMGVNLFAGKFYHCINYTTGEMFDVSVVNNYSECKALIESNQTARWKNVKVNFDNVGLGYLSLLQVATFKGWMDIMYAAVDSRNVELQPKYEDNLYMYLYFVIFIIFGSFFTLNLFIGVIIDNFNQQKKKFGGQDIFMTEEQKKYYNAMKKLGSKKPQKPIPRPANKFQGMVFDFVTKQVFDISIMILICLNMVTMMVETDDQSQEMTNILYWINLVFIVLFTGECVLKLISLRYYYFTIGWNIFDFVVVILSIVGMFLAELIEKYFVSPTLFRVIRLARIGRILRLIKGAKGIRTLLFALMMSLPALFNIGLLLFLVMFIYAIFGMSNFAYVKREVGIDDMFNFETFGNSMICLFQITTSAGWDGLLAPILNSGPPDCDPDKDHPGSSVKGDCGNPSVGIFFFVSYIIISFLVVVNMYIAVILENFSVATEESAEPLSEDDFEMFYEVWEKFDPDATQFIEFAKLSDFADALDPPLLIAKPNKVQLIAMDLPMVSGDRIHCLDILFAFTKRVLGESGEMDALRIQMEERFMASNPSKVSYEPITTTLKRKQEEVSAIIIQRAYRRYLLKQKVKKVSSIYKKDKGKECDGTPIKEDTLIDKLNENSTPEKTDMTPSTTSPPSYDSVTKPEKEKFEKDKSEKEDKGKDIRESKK
For test [6], the species on record is Rattus norvegicus. Put plainly: Effect on […] in rat by rotarod test. The format is functional.
The test system of test [7] is Rattus norvegicus. Put plainly: Analgesic activity in ip dosed rat by chung model of neuropathic pain. In kind it is functional.
The species named for test [8] is Rattus norvegicus. Put plainly: Effect on locomotor activity in rat. The format is functional.

The structures appear in SMILES notation. Bounds are passed on as bounds.

Sequence of Sodium channel protein type 5 subunit alpha (Q14524 whole entry): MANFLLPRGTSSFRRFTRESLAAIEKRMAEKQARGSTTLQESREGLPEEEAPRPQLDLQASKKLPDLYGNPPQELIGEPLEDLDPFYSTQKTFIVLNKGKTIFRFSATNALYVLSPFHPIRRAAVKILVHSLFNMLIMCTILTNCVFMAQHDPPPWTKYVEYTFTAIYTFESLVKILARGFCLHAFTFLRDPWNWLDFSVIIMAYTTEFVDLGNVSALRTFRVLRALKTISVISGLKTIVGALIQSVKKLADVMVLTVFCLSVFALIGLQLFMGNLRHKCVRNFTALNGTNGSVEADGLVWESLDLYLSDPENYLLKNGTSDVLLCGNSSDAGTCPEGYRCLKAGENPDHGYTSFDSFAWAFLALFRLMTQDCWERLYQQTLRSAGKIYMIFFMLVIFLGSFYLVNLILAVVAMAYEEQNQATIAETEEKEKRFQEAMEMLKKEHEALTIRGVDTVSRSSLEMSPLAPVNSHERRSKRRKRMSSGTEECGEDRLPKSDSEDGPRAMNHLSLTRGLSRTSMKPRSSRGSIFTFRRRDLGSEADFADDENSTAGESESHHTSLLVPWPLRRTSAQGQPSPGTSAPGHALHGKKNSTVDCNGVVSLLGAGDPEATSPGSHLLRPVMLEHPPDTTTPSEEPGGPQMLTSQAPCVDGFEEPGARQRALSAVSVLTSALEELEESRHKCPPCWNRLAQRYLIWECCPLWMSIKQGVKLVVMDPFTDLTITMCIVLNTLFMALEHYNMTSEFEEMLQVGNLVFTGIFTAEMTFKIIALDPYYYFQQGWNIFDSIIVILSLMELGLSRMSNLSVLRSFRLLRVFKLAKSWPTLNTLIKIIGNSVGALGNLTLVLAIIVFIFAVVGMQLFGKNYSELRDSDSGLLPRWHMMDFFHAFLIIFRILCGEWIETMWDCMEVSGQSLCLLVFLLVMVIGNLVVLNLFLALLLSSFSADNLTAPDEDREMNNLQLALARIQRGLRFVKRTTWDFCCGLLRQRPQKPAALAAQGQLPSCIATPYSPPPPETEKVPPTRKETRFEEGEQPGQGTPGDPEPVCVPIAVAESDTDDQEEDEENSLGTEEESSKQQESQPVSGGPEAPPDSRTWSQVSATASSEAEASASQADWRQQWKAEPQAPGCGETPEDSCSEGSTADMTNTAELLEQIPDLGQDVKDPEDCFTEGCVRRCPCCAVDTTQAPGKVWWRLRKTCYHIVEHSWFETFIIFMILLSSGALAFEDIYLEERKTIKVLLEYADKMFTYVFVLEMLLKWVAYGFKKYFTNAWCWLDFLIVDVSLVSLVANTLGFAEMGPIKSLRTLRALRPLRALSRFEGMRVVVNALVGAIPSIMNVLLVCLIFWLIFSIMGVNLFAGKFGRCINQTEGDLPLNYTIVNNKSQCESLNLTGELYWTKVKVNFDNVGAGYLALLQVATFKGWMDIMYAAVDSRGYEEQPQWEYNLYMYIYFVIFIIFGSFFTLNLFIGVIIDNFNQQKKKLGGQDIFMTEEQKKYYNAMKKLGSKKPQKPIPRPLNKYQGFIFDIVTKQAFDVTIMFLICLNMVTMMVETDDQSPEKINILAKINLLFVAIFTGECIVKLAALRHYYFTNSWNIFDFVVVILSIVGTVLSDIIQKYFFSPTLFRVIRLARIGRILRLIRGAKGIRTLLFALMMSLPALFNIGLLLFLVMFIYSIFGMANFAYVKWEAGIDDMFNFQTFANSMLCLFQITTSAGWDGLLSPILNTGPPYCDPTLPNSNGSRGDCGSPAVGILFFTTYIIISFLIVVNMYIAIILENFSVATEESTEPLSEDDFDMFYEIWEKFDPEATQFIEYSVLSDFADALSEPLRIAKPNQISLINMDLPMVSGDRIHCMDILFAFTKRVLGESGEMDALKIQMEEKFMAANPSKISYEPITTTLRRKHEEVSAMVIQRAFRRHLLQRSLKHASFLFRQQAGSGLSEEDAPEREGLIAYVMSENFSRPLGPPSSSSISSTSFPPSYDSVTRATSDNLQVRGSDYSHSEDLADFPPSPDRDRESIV

In the case of `CN(Cc1ccc(-c2ccccc2S(N)(=O)=O)cc1)C(=O)[C@@H]1CCC[C@H]1C(=O)NCc1ccc(OC(F)(F)F)cc1`, the results for the inhibition constant Ki in test [1] and in test [2] were 0.18 µM and 0.25 µM, respectively.
As for `COc1cc(NC(=O)c2ccc(-c3ccc(Cl)cc3)o2)cc(OC)c1`, the ED50 with Rattus norvegicus [3] is 86 µM; in the test listed under Rattus norvegicus [6], over 300 µM; in the test with Rattus norvegicus [7], 47 µM; in the test filed under Rattus norvegicus [8] it was over 300 µM. In addition, the IC50 in test [4] turned out to be 7.44 µM; in test [5], 7.18 µM.
